The source made the active and inactive calls. A value given as a limit tells only on which side of the number the result lay.

In experiment [1] the target is Coagulation factor XII (Homo sapiens, UniProt P00748). Type of experiment: functional.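 Note: activated factor XIIa alpha cleaving a fluorogenic AMC peptide substrate; inhibitor potency from loss of enzyme activity.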
For experiment [2], the target named is Dual specificity protein phosphatase 3 (Homo sapiens, UniProt P51452). As to the kind of experiment: SAR VHR1 Fluorescent Assay for In Vitro dose response studies Set 2. [Related pubchem assays (depositor defined):AID1654, AID1661, AID1878]. Type of experiment: functional.
The target in experiment [3] is T1, Tyrosine-protein phosphatase non-receptor type 7 (Homo sapiens, UniProt P35236).
T1 sequence (P35236 whole entry): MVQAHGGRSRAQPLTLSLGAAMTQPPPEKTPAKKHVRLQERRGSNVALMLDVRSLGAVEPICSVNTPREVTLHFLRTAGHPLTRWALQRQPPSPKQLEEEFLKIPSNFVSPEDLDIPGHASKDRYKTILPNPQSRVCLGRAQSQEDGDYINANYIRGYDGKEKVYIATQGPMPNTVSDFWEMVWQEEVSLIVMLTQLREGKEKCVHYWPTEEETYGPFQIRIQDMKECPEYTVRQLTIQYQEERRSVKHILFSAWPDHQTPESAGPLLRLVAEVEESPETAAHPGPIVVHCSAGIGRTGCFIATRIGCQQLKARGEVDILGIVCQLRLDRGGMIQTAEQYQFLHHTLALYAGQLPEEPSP
As to the kind of experiment: SAR analysis of chemical inhibitors of HePTP using a Fluorescent assay - Set 2. [Related pubchem assays (depositor defined):AID1059, AID1077, AID1661, AID2085, AID521]. Type of experiment: functional.

Experiment [4] is described as follows: cytotoxicity in HEK-293T cells, dose response, cytotoxicity control for TCR NF-kB inhibitor project, luminescence, T-cell screen hits (AID 489026).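 Note: cells exposed to compound about 14 hours before the viability readout.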 Type of experiment: functional, cell-based.
Experiment [5] addresses Microphthalmia-associated transcription factor (Homo sapiens, UniProt O75030). As to the kind of experiment: TRPM1 promoter luciferase signal decrease, dose response, MITF inhibitor project, cell-based, SK-MEL-5, cherry-picked, set 3 (AID 493073).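 Note: SK-MEL-5 melanoma cells with luciferase driven by the MITF target TRPM1 promoter.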 It is filed as functional.
Experiment [6] in a line: inhibitors of intracellular T. cruzi replication, confirmation, NIH3T3 host cells, beta-gal luminescence (AID 2044).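 Note: intracellular parasites grown in NIH/3T3 mouse fibroblasts as host cells; luminescent beta-galactosidase reporter signal from transgenic T. cruzi replicating inside host cells; inhibitors lower the luminescence signal.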 It is filed as functional, cell-based.
For experiment [7], the target named is G-protein coupled receptor 55 (Homo sapiens, UniProt Q9Y2T6). As to the kind of experiment: GPR55 agonists via beta-arrestin recruitment, primary screen, imaging, U2OS cells, beta-arrestin-GFP redistribution (AID 1961). Type of experiment: functional.
For experiment [8], the target named is T2, Heat shock factor protein 1 (Mus musculus, UniProt P38532).
T2 sequence (P38532 whole entry): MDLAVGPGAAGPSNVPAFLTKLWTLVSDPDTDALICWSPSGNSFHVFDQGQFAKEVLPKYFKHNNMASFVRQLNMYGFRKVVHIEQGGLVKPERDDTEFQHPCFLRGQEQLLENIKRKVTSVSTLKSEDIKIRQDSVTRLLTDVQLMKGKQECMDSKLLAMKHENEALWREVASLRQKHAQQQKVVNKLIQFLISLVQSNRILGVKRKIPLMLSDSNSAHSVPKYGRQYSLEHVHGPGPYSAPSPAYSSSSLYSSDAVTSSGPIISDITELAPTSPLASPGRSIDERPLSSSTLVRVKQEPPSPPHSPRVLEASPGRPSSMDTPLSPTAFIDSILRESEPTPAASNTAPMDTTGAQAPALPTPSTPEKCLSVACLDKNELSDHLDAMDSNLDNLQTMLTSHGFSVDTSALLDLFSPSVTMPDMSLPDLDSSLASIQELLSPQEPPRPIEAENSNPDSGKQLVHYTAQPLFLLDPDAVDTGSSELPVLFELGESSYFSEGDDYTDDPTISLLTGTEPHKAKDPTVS
The experiment is described as follows: inhibition of MG132-induced HSE-luciferase signal, confirmation, cell-based, NIH3T3, luminescence, dose retest (AID 2382).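 Note: NIH3T3 fibroblasts with HSF1-driven luciferase reporter stressed by proteasome inhibitor MG132; luminescence from HSF1-driven luciferase expression after 8 hours of MG132 stress.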 It is filed as functional.

Experiment [9] can be described thus: cytotoxicity toward NIH3T3 fibroblasts, dose response, counter-screen, cell-based, ATP luminescence, mouse fibroblasts (AID 2010).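 Note: cells exposed to compound for about 90 hours before reading.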 Type of experiment: functional.
In experiment [10] the target is T3, Runt-related transcription factor 1/Core-binding factor subunit beta (Homo sapiens, UniProt Q01196+Q13951). The experiment is described as follows: inhibitors of RUNX1 Runt–CBFb-SMMHC binding, biochemical, TR-FRET (AID 1438). It is filed as protein assay.
Experiment [11] has as its system H9c2. The experiment is described as follows: cells. Type of experiment: functional, cell-based. The note with it: Rattus norvegicus, H9c2, Myocardium.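 Note: confirmatory concentration-response retest of ultra-high-throughput screening hits for modulation of myocardial damage; cell death induced by hydrogen peroxide oxidative stress; compound pretreatment for 60 min then peroxide exposure for 2 h; potency is for protecting the cells against peroxide damage rather than for killing them.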
Experiment [12] deals with T3, Runt-related transcription factor 1/Core-binding factor subunit beta. As to the kind of experiment: inhibitors of RUNX1 Runt–CBFb-SMMHC binding, primary screen, biochemical, FRET, Cerulean-Runt, Venus-CBFb-SMMHC, uHTS (AID 1434).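 Note: partner is the CBFb-SMMHC leukemia fusion protein rather than wild-type CBFb.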 It is filed as protein assay.
Experiment [13] addresses Eukaryotic translation initiation factor 4E (Mus musculus, UniProt P63073). As to the kind of experiment: eIF4E–eIF4G protein interaction inhibitors, dose response, biochemical, TR-FRET (AID 855).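 Note: potency for disrupting eIF4E binding to eIF4GI seen as loss of FRET.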 Type of experiment: functional.
Experiment [14] concerns the target T4, Voltage-gated N-type calcium channel alpha-1B subunit/Amyloid beta A4 precursor protein-binding family A member 1 (Homo sapiens, UniProt Q00975+Q02410). It is filed as protein assay.
The target in experiment [15] is DNA dC->dU-editing enzyme APOBEC-3G (Homo sapiens, UniProt Q9HC16). The experiment is described as follows: Dose Response confirmation of small molecule APOBEC3G DNA Deaminase Inhibitors via a fluorescence-based single-stranded DNA deaminase assay. [Related pubchem assays (depositor defined):AID493012, AID493028]. Type of experiment: functional.
For experiment [16], the target named is T4, Voltage-gated N-type calcium channel alpha-1B subunit/Amyloid beta A4 precursor protein-binding family A member 1. Type of experiment: protein assay. This is another data set of the same source.
Experiment [17] has as its target T5, Polyadenylate-binding protein 1 (Homo sapiens, UniProt P11940). The experiment is described as follows: PABP1 MLLE–PAM2 interaction inhibitors, dose response, miRNA deadenylation inhibitor project, biochemical, fluorescence polarization, Cy5-PAM2 peptide, secondary (AID 602260). It is filed as functional. The note with it: read-out: IC50_Mean.
Experiment [18] concerns the target T5, Polyadenylate-binding protein 1. As to the kind of experiment: PABP1 MLLE–PAM2 binding inhibitor potency, dose response, biochemical, fluorescence polarization, FITC-PAM2 peptide (AID 602259). Type of experiment: functional. The note with it: read-out: IC50_Mean.
In experiment [19] the target is T2, Heat shock factor protein 1. The experiment is described as follows: HSF1 potentiators in luciferase reporter cells, confirmation, cell-based, NIH3T3, luminescence, dose retest (AID 435004).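 Note: stress induced by proteasome inhibitor MG132 added 30 min after compound; luciferase reporter driven by HSF1 response element in NIH3T3 cells; actives raise luminescence as potentiators of the MG132 stress response.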 It is filed as functional.
The target of experiment [20] is E3 ubiquitin-protein ligase Mdm2 (Homo sapiens, UniProt Q00987). As to the kind of experiment: enhancers of MDM2-luciferase reporter signal, concentration-effect titration, project on inhibitors of MDM2 ubiquitin ligase, cellular assay, luminescent readout, 384-well plate format (AID 1394).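 Note: MDM2 E3 inhibitors raise luminescence so EC50 is for signal enhancement.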 It is filed as functional.
Experiment [21] deals with Large T antigen (Simian virus 40, UniProt P03070). It is filed as functional, Betapolyomavirus macacae.
For experiment [22], the target named is Induced myeloid leukemia cell differentiation protein Mcl-1 (Homo sapiens, UniProt Q07820). It is filed as functional.
The target of experiment [23] is Paired box protein Pax-8 (Homo sapiens, UniProt Q06710). The experiment is described as follows: inhibitors of PAX8-driven TPO luciferase reporter, dose response, RMG-I cells, cherry-pick (AID 687027).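 Note: luciferase reporter driven by Pax8 target thyroperoxidase promoter measured by SteadyGlo luminescence.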 Type of experiment: functional, cell-based.

T4 sequence (Q00975 whole entry): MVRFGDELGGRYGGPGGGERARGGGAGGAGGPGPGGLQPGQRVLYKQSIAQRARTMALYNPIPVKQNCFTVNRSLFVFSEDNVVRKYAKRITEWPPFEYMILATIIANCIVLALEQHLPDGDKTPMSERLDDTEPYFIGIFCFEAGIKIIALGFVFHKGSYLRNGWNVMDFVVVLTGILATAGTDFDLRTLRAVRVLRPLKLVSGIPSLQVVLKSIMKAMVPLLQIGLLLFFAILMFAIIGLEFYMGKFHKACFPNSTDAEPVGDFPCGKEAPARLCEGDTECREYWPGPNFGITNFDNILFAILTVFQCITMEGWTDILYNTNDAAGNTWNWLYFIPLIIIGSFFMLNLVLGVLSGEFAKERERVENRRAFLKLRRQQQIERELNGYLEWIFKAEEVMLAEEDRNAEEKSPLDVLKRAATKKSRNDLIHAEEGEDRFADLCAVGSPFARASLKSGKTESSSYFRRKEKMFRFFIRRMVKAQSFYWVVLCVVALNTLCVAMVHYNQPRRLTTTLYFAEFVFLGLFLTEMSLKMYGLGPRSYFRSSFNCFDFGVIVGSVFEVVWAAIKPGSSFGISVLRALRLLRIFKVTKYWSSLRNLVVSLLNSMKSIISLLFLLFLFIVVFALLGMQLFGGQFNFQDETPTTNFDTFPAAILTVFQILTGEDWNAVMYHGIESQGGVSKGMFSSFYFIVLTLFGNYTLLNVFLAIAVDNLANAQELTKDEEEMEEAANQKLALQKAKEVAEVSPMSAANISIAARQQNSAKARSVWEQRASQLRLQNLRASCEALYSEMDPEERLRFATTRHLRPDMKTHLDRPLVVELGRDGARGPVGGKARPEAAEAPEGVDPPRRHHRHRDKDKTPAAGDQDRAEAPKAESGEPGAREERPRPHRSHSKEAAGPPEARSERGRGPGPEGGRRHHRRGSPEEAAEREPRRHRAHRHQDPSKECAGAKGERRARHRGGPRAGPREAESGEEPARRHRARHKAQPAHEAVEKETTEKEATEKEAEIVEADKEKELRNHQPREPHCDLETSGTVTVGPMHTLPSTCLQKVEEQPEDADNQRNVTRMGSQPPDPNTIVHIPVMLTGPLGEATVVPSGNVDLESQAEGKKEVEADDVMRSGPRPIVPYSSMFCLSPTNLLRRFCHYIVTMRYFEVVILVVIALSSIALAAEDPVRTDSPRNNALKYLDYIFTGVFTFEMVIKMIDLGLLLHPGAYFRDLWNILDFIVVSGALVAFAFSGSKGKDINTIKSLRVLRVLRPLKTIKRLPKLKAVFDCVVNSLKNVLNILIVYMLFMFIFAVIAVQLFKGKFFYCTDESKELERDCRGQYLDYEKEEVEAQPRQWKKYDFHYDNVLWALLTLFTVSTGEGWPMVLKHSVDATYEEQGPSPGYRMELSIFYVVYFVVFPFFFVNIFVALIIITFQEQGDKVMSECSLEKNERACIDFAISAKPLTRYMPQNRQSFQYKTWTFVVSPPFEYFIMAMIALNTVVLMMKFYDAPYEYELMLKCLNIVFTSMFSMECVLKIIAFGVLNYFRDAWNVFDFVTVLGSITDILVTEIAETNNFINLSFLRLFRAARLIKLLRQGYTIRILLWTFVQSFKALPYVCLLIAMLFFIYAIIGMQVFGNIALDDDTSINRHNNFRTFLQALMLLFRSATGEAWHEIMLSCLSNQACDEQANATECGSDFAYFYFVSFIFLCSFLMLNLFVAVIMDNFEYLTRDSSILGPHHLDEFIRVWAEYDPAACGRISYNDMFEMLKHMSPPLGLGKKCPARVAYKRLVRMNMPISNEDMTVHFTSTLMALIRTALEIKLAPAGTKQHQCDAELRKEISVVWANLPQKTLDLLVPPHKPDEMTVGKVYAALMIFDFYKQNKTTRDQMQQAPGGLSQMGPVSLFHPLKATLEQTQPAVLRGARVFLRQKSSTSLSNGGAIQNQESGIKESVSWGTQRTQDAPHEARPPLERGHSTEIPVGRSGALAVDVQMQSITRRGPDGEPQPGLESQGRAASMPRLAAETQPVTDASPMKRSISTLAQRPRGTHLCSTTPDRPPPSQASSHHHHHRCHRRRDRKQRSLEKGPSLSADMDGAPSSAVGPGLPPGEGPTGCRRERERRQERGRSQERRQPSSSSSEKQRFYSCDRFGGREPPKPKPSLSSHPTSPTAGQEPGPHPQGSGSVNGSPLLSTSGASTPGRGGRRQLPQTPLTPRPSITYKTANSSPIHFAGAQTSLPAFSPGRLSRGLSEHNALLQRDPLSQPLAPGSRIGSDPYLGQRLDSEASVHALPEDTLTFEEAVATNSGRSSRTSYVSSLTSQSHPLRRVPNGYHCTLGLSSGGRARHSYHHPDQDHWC
T4 sequence (Q02410 whole entry): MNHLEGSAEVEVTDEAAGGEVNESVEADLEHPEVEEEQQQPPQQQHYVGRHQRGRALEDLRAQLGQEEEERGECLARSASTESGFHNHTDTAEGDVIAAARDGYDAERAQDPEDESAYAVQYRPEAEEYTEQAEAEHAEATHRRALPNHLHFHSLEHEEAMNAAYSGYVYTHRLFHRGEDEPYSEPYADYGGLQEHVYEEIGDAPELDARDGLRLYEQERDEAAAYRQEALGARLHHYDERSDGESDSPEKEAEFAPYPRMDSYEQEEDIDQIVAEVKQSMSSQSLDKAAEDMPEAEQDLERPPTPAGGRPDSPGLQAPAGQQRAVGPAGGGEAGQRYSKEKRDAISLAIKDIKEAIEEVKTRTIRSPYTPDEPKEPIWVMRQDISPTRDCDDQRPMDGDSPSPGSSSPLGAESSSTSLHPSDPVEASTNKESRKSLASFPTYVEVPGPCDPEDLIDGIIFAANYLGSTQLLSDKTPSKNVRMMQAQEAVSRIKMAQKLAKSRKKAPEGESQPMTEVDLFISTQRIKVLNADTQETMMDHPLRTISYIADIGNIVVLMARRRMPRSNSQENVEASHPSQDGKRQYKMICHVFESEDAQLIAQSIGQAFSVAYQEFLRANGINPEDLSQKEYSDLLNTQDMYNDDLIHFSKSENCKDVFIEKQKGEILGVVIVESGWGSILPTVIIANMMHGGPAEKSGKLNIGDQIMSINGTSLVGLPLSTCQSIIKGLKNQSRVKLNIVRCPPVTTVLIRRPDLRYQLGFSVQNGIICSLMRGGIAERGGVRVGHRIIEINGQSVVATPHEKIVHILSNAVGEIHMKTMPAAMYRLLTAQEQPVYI
Coagulation factor XII, sequence (P00748 20-372 limits assumed): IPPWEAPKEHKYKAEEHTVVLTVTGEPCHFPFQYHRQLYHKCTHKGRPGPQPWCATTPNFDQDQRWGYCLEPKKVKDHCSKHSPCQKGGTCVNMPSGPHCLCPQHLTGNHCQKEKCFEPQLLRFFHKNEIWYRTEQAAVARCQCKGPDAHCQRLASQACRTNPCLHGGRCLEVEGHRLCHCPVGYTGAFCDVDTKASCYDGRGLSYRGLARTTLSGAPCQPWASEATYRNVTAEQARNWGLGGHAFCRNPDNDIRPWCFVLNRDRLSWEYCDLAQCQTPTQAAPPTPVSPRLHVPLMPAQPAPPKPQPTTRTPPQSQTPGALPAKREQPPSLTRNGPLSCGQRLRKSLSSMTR
Coagulation factor XII, sequence (P00748 373-615 limits assumed): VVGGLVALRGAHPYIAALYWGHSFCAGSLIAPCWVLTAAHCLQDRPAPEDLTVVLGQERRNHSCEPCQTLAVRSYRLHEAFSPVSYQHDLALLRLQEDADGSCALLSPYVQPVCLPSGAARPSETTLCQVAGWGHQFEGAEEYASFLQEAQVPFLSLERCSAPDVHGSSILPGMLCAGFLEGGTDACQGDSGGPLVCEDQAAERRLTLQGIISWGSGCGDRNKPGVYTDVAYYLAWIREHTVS
T3 sequence (Q01196 whole entry): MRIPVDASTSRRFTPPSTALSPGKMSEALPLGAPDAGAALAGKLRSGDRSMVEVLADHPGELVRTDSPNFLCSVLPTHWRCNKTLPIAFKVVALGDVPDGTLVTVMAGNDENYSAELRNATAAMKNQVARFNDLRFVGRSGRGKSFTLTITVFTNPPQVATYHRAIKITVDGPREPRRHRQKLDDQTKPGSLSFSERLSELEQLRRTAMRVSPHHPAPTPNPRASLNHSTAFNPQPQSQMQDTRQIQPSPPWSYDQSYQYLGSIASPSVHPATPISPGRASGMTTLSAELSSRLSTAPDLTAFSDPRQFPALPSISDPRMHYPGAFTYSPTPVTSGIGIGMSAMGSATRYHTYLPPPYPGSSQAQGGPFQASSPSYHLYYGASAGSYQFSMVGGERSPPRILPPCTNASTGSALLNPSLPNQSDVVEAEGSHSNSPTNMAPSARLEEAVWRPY
T3 sequence (Q13951 whole entry): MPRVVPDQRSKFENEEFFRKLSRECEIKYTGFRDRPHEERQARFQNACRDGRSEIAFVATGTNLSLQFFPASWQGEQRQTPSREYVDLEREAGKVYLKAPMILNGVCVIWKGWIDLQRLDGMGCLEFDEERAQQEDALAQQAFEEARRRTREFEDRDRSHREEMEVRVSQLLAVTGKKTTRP
Microphthalmia-associated transcription factor, sequence (O75030 whole entry): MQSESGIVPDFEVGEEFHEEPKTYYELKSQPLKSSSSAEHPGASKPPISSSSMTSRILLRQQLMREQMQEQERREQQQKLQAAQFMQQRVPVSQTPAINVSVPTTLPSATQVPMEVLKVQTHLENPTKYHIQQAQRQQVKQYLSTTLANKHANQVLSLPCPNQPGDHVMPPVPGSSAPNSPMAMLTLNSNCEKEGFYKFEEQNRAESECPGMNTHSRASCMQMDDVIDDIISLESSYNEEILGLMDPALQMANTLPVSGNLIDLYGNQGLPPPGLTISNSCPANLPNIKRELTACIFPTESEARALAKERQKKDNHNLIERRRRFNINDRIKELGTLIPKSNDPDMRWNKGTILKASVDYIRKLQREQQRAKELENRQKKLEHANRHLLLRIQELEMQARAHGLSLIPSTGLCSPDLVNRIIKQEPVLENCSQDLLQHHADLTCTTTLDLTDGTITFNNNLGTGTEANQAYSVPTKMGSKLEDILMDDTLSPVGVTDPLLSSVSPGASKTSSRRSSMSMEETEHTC

For `CC1(C)CC(=O)C=C(NNC(=O)c2ccccc2O)C1`, the IC50 in experiment [1] was > 50 µM (inactive).
Take `Cc1ccc(-n2c(N)c(C(=O)N3CCCCC3)sc2=S)cc1`: the IC50 was 76.5 µM (active) in [2] and > 100 µM (inactive) in experiment [3].
As for `Nc1nc(-c2ccccc2)cc(N2CCCCC2)n1`, the IC50 in [4] was > 80 µM (inactive).
As to `COc1ccc(C(=O)/C=C/C(=O)N(CC(=O)NC2CCCCC2)Cc2ccc(F)cc2)c(O)c1`, the AC50 in experiment [5] is 5.45 µM (active). The EC50 in [6] was 1.61 µM (active); in experiment [7], > 32 µM (inactive); in experiment [8] it was 5.29 µM (active); in experiment [9], > 60 µM (not active).
Take `COc1ccc(OC)c(/C=N/Nc2cc(C)nc(N3CCOCC3)n2)c1`: in [1], the IC50 was > 50 µM (inactive).
Consider `CC(C)c1cc(N2CCN(C(=O)c3ccco3)CC2)n2c(nc3ccccc32)c1C#N`, for which the IC50 in experiment [10] is > 100 µM (inactive); in experiment [11], 15.5 µM (active); in experiment [12], > 100 µM (inactive).
As for `COCc1c(N)c(C)nc(Cl)c1C#N`, the IC50 is 50 µM (inactive) in experiment [13], > 50 µM (inactive) in experiment [14], 13.3 µM (active) in [15] and 13.9 µM (active) in [16].
Consider `Cc1cc(C)nc(S/C=C/C(=O)c2ccccc2F)n1`, for which the IC50 in experiment [17] and in experiment [18] was > 66 µM (inactive) each time. Moreover, the AC50 in experiment [5] was 5.37 µM (active). Moreover, the EC50 in experiment [19] was 14.7 µM (active); in experiment [20], 1 µM (active).
As for `NS(=O)(=O)c1ccc(NC(=S)N2CCN(c3ccc(Cl)c(Cl)c3)CC2)cc1`, the IC50 in [2] and in experiment [3] was > 100 µM (inactive) each time.
`COc1ccc(CC(=O)n2[nH]c(=O)ccc2=O)cc1OC`: the IC50 in experiment [21] was > 100 µM (active); in [14] it was 1.53 µM (active); in experiment [22], 18.2 µM (active); in experiment [16], 46.1 µM (active).
Turning to `CCCN(CCC)Cc1c(C(=O)N/N=C/C(C)=C\c2ccco2)nnn1-c1nonc1N`, the EC50 in experiment [7] was 0.625 µM (active). In addition, in [23], the AC50 was 2.86 µM (active).
